Legend:
Assay in all cases: Bliss excess, mean over the matrix (fraction); higher = more synergy
[1] = system: NCI-H1993 (Lung Adenocarcinoma)
Summary of the method: (§1)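 Bliss excess equals the observed combination effect minus the expected value EA + EB − EA·EB, where EA and EB are the effects of each agent alone. Combination Emax is the second-highest inhibition within the matrix. Inhibition was scaled from CellTiter-Glo 2.0 luminescence, with 0 set by vehicle wells and 1 by blank wells, after 72 hours of two-drug dosing of cells plated in 1536-well plates.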

[2] = system: EJM (Plasma Cell Myeloma)
Summary of the method: as §1

[3] = system: MOG-G-UVW (Low Grade Glioma)
Summary of the method: as §1

[4] = system: KMRC-1 (Kidney Carcinoma)
Summary of the method: as §1

[5] = system: SNU-387 (Hepatocellular Carcinoma)
Summary of the method: as §1

[6] = system: EW-1 (Ewing's Sarcoma)
Summary of the method: as §1

[7] = system: NCI-H1092 (Small Cell Lung Carcinoma)
Summary of the method: as §1

[8] = system: MV-4-11 (Acute Myeloid Leukemia)
Summary of the method: as §1

[9] = system: HCC1937 (Breast Carcinoma)
Summary of the method: as §1

[10] = system: KOPN-8 (B-Lymphoblastic Leukemia)
Summary of the method: as §1

[11] = system: CADO-ES1 (Ewing's Sarcoma)
Summary of the method: as §1

[12] = system: SW982 (Other Solid Carcinomas)
Summary of the method: as §1

[13] = system: KGN (Other Solid Carcinomas)
Summary of the method: as §1

[14] = system: SK-LU-1 (Lung Adenocarcinoma)
Summary of the method: as §1

[15] = system: HCC2998 (Colorectal Carcinoma)
Summary of the method: as §1

[16] = system: HAL-01 (B-Lymphoblastic Leukemia)
Summary of the method: as §1

[17] = system: Ca-Ski (Cervical Carcinoma)
Summary of the method: as §1

[18] = system: SW872 (Other Solid Carcinomas)
Summary of the method: as §1

[19] = system: EFO-21 (Ovarian Carcinoma)
Summary of the method: as §1

[20] = system: Hey (Ovarian Carcinoma)
Summary of the method: as §1

| SMILES | Bliss excess [1] | Bliss excess [2] | Bliss excess [3] | Bliss excess [4] | Bliss excess [5] | Bliss excess [6] | Bliss excess [7] | Bliss excess [8] | Bliss excess [9] | Bliss excess [10] | Bliss excess [11] | Bliss excess [12] | Bliss excess [13] | Bliss excess [14] | Bliss excess [15] | Bliss excess [16] | Bliss excess [17] | Bliss excess [18] | Bliss excess [19] | Bliss excess [20] |
| --- | --- | --- | --- | --- | --- | --- | --- | --- | --- | --- | --- | --- | --- | --- | --- | --- | --- | --- | --- | --- |
| CN(C)CCCOc1ccc(-c2ccc3ncc4c(c3c2)n(C2CCOCC2)c(=O)n4C)cn1 [AZD0156] + C=CCn1c(=O)c2cnc(Nc3ccc(N4CCN(C)CC4)cc3)nc2n1-c1cccc(C(C)(C)O)n1 [AZD1775] (first compound max 1 µM, partner max 1 µM) | -0.0699 | -0.0266 | -0.0525 | -0.0216 | -0.054 | -0.0281 | -0.0351 | -0.0306 | -0.0734 | -0.0256 | 0.0196 | -0.0676 | -0.0028 | -0.0264 | 0.057 | 0.053 | -0.0291 | -0.0183 | -0.0369 | -0.0242 |
| CN(C)CCCOc1ccc(-c2ccc3ncc4c(c3c2)n(C2CCOCC2)c(=O)n4C)cn1 [AZD0156] + CCN(CCO)CCCOc1ccc2c(Nc3cc(CC(=O)Nc4cccc(F)c4)[nH]n3)ncnc2c1 [AZD2811] (first compound max 1 µM, 7x7, partner max 1 µM) | -0.0335 | 0.0008 | 0.045 | -0.0251 | -0.0569 | 0.0446 | -0.0102 | -0.0383 | -0.0387 | 0.0535 | 0.0131 | -0.0042 | -0.0306 | -0.0518 | 0.0314 | 0.0135 | 0.008 | -0.0311 | -0.0506 | 0.0051 |
| CN(C)CCCOc1ccc(-c2ccc3ncc4c(c3c2)n(C2CCOCC2)c(=O)n4C)cn1 [AZD0156] + C[C@@H]1COCCN1C2=NC(=NC(=C2)C3(CC3)[S@](=N)(=O)C)C4=C5C=CNC5=NC=C4 [AZD6738] (first compound max 1 µM, 7x7, partner max 10 µM) | -0.0329 | 0.0266 | 0.0282 | -0.0496 | 0.0187 | 0.042 | -0.0427 | -0.06 | -0.0386 | -0.0166 | 0.0405 | -0.0507 | -0.0172 | 0.0073 | 0.0637 | -0.0648 | -0.0036 | 0.0187 | -0.0206 | -0.019 |
| CN(C)CCCOc1ccc(-c2ccc3ncc4c(c3c2)n(C2CCOCC2)c(=O)n4C)cn1 [AZD0156] + O=C(c1cc(Cc2n[nH]c(=O)c3ccccc23)ccc1F)N1CCN(C(=O)C2CC2)CC1 [Olaparib] (first compound max 3 µM, partner max 3 µM) | -0.0191 | 0.0719 | 0.204 | -0.0316 | 0.0072 | 0.231 | 0.0028 | – | 0.0316 | 0.31 | 0.285 | 0.0903 | 0.156 | -0.017 | 0.0824 | 0.191 | 0.063 | -0.0318 | -0.0149 | 0.106 |
| C=CCn1c(=O)c2cnc(Nc3ccc(N4CCN(C)CC4)cc3)nc2n1-c1cccc(C(C)(C)O)n1 [AZD1775] + C1CN(CCC1(C(=O)N[C@@H](CCO)C2=CC=C(C=C2)Cl)N)C3=NC=NC4=C3C=CN4 [Capivasertib] (first compound max 3 µM, partner max 3 µM) | -0.0096 | -0.0041 | -0.0039 | -0.0762 | -0.0435 | 0.0379 | -0.0497 | – | -0.0385 | 0.0369 | 0.006 | -0.0415 | -0.0195 | 0.0164 | 0.0232 | -0.0528 | 0.0161 | -0.106 | -0.0991 | -0.0475 |
| C=CCn1c(=O)c2cnc(Nc3ccc(N4CCN(C)CC4)cc3)nc2n1-c1cccc(C(C)(C)O)n1 [AZD1775] + C[C@@H]1COCCN1C2=NC(=NC(=C2)C3(CC3)[S@](=N)(=O)C)C4=C5C=CNC5=NC=C4 [AZD6738] (first compound max 1 µM, partner max 10 µM) | -0.0727 | -0.0079 | 0.0202 | -0.002 | -0.0302 | 0.0194 | 0.0124 | -0.0103 | -0.0717 | -0.0006 | 0.0441 | -0.019 | -0.0578 | -0.0774 | 0.0923 | – | 0.0052 | 0.053 | -0.0492 | 0.0385 |
| C=CCn1c(=O)c2cnc(Nc3ccc(N4CCN(C)CC4)cc3)nc2n1-c1cccc(C(C)(C)O)n1 [AZD1775] + O=C(c1cc(Cc2n[nH]c(=O)c3ccccc23)ccc1F)N1CCN(C(=O)C2CC2)CC1 [Olaparib] (first compound max 1 µM, partner max 10 µM) | -0.0631 | -0.0429 | -0.0329 | -0.0224 | -0.075 | -0.0235 | -0.0342 | 0.0445 | -0.0813 | -0.016 | 0.0402 | -0.102 | -0.0844 | -0.0306 | -0.057 | -0.0542 | -0.0474 | 0.0141 | -0.0266 | -0.0327 |
| CN(CCO)CC[C@H](CSc1ccccc1)Nc1ccc(S(=O)(=O)NC(=O)c2ccc(N3CCC([C@@H](O)c4ccccc4-c4ccc(Cl)cc4)CC3)cc2)cc1S(=O)(=O)C(F)(F)F [AZD4320] + C=CCn1c(=O)c2cnc(Nc3ccc(N4CCN(C)CC4)cc3)nc2n1-c1cccc(C(C)(C)O)n1 [AZD1775] (first compound max 1 µM, partner max 1 µM) | 0.0951 | 0.0256 | -0.0193 | 0.0036 | 0.0102 | 0.0581 | 0.0527 | – | 0.0878 | 0.0016 | -0.005 | 0.0247 | -0.0387 | -0.038 | 0.0609 | 0.0695 | 0.0198 | 0.0035 | -0.078 | -0.053 |
| CS(=O)(=O)CCNCc1ccc(-c2ccc3ncnc(Nc4ccc(OCc5cccc(F)c5)c(Cl)c4)c3c2)o1 [Lapatinib] + Cn1cnc2c(F)c(Nc3ccc(Br)cc3Cl)c(C(=O)NOCCO)cc21 [Selumetinib] (first compound max 10 µM, 7x7, partner max 10 µM) | 0.0118 | – | 0.024 | -0.0772 | 0.0212 | – | – | 0.0464 | – | – | – | 0.034 | 0.0232 | -0.0145 | – | 0.0997 | -0.0185 | 0.0006 | 0.0118 | – |
| CS(=O)(=O)CCNCc1ccc(-c2ccc3ncnc(Nc4ccc(OCc5cccc(F)c5)c(Cl)c4)c3c2)o1 [Lapatinib] + NC1(c2ccc(-c3nc4ccn5c(=O)[nH]nc5c4cc3-c3ccccc3)cc2)CCC1 [MK-2206] (first compound max 10 µM, 7x7, partner max 10 µM) | -0.0147 | – | 0.0675 | 0.0098 | 0.0033 | – | 0.0182 | 0.0371 | -0.0343 | -0.0586 | – | -0.0099 | 0.0078 | -0.0239 | – | 0.0687 | 0.0103 | -0.0066 | 0.0024 | – |
| O=C(c1cc(Cc2n[nH]c(=O)c3ccccc23)ccc1F)N1CCN(C(=O)C2CC2)CC1 [Olaparib] + CC1(C)CCC(CN2CCN(c3ccc(C(=O)NS(=O)(=O)c4ccc(NCC5CCOCC5)c([N+](=O)[O-])c4)c(Oc4cnc5[nH]ccc5c4)c3)CC2)=C(c2ccc(Cl)cc2)C1 [Venetoclax] (first compound max 10 µM, 7x7, partner max 1 µM) | -0.0397 | – | 0.001 | -0.0522 | -0.0285 | – | – | 0.0475 | – | – | – | -0.0429 | -0.0145 | -0.0404 | – | 0.122 | -0.0069 | -0.023 | -0.0495 | – |
| O=C(c1cc(Cc2n[nH]c(=O)c3ccccc23)ccc1F)N1CCN(C(=O)C2CC2)CC1 [Olaparib] + CN(CC[C@H](CSC1=CC=CC=C1)NC2=C(C=C(C=C2)S(=O)(=O)NC(=O)C3=CC=C(C=C3)N4CCC(CC4)[C@H](C5=CC=CC=C5C6=CC=C(C=C6)Cl)O)S(=O)(=O)C(F)(F)F)CCO [AZD4320] (first compound max 10 µM, 7x7, partner max 1 µM) | -0.0405 | – | -0.0009 | -0.0501 | -0.0863 | – | – | -0.0086 | – | – | – | 0.0389 | -0.0153 | -0.0445 | – | 0.0353 | 0.0083 | -0.0189 | -0.0415 | – |
| O=C(c1cc(Cc2n[nH]c(=O)c3ccccc23)ccc1F)N1CCN(C(=O)C2CC2)CC1 [Olaparib] + COc1nnc2ccc(N3CCC(c4ccc(OCCN5CCN(C)C(=O)[C@H]5C)cc4)CC3)nn12 [AZD5153] (first compound max 10 µM, 7x7, partner max 1 µM) | -0.0529 | – | -0.0406 | -0.0556 | -0.0768 | – | – | 0.008 | – | – | – | -0.0614 | 0.018 | -0.0623 | – | 0.007 | -0.0179 | 0.0202 | -0.0719 | – |
| O=C(c1cc(Cc2n[nH]c(=O)c3ccccc23)ccc1F)N1CCN(C(=O)C2CC2)CC1 [Olaparib] + Cc1c2c(nn1C)CSCc1cc(n(C)n1)CSc1cc(c3ccccc3c1)OCCCc1c(C(=O)O)n(C)c3c-2c(Cl)ccc13 [AZD5991] (first compound max 10 µM, 7x7, partner max 1 µM) | -0.0275 | – | -0.0125 | -0.0784 | -0.0935 | – | – | 0.0735 | – | – | – | -0.0011 | -0.0651 | -0.0436 | – | -0.0229 | -0.0275 | -0.0377 | -0.0533 | – |
| Cc1nc(-c2cn3c(n2)-c2ccc(-c4cnn(C(C)(C)C(N)=O)c4)cc2OCC3)n(C(C)C)n1 [Taselisib] + O=C(Nc1ccc2[nH]nc(-c3ccncc3)c2c1)[C@@H]1CCN(CC(=O)N2CCN(c3ccc(-c4ncccn4)cc3)CC2)C1 [SCH772984] (first compound max 10 µM, 7x7, partner max 5 µM) | 0.111 | – | 0.0333 | -0.0377 | 0.122 | – | – | 0.177 | – | – | – | -0.0167 | 0.0378 | 0.0898 | – | -0.0711 | 0.0833 | 0.0712 | 0.0446 | – |
| CC1(C)CCC(CN2CCN(c3ccc(C(=O)NS(=O)(=O)c4ccc(NCC5CCOCC5)c([N+](=O)[O-])c4)c(Oc4cnc5[nH]ccc5c4)c3)CC2)=C(c2ccc(Cl)cc2)C1 [Venetoclax] + CS(=O)(=O)CCNCc1ccc(-c2ccc3ncnc(Nc4ccc(OCc5cccc(F)c5)c(Cl)c4)c3c2)o1 [Lapatinib] (first compound max 1 µM, 7x7, partner max 10 µM) | -0.0311 | – | -0.0012 | -0.0584 | -0.0514 | – | – | 0.0293 | – | – | – | -0.0456 | -0.0609 | -0.0772 | – | 0.102 | -0.0249 | -0.0313 | -0.0323 | – |

Source: the supplement of paper PMC11061612
